Measured values as given in US11292796B2 (SIGNAL PHARMACEUTICALS, LLC, priority 2008, dated 2022).

Target: T1, mTOR (Homo sapiens, UniProt P42345)
T1 construct: purchased Invitrogen PR8683A
Experiment: mTOR HTR-FRET assay
Format: biochemical
Conditions: read-out: Act. Level (IC50 in mTor HTR-FRET assay)
Outline: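 Test compounds, taken from 10 mM DMSO stocks and diluted, were mixed with mTOR enzyme (0.200 μg/mL) in Tris buffer pH 7.4 with 100 mM NaCl, 0.1% Tween-20 and 1 mM DTT. ATP/substrate addition initiated the reaction, alongside compound-free controls.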

T1 sequence (P42345 1360-2549 limits assumed): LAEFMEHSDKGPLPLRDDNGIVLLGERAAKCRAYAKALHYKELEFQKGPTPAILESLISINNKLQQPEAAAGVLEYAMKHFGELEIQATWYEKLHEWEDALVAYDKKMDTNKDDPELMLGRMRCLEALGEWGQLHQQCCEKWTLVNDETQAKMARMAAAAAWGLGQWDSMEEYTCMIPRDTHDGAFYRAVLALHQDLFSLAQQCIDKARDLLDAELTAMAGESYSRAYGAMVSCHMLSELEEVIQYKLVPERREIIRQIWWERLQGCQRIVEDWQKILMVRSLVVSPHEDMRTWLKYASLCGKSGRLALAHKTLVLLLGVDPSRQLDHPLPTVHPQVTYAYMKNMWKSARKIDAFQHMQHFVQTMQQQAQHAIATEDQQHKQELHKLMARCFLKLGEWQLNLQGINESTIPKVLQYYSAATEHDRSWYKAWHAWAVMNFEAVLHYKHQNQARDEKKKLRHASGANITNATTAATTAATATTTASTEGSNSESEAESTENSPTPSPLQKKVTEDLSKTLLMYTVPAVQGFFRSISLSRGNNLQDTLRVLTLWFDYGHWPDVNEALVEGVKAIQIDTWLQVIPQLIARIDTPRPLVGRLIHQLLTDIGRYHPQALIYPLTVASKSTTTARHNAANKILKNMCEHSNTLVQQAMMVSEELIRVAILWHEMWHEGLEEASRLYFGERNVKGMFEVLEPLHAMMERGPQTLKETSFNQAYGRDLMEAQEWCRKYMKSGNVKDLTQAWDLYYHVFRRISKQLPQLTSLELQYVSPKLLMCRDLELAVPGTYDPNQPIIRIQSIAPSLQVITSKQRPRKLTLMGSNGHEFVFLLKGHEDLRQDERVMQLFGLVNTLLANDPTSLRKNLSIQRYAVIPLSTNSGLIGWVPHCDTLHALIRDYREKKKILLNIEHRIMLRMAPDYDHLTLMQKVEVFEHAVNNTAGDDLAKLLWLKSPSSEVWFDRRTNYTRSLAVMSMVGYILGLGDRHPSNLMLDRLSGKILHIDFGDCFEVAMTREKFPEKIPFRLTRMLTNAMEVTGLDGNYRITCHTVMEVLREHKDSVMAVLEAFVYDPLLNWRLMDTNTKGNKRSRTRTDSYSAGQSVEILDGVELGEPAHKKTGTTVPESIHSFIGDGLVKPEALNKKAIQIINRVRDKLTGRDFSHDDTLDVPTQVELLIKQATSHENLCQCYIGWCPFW

SMILES	IC50
CO[C@H]1CC[C@@H](N2CC(=O)Nc3ncc(-c4ccc(-c5nc[nH]n5)c(F)c4C)nc32)CC1 [Example 28, 6-(3-fluoro-2-methyl-4-(1H-1,2,4-triazol-3-yl)phenyl)-4-(cis-4-methoxycyclohexyl)-3,4-dihydropyrazino[2,3-b]pyrazin-2(1H)-one]	0.005 to 250 nM
C[C@H](O)c1ccc(-c2cnc3c(n2)N(CCC2CCOCC2)C(=O)CN3)cn1 [Example 253, (S)-7-(6-(1-hydroxyethyl)pyridin-3-yl)-1-(2-(tetrahydro-2H-pyran-4-yl)ethyl)-3,4-dihydropyrazino[2,3-b]pyrazin-2(1H)-one]	0.005 to 250 nM
C[C@H]1Nc2ncc(-c3ccc(C(C)(C)O)nc3)nc2N(CCC2CCOCC2)C1=O [Example 266, (R)-7-(6-(2-hydroxypropan-2-yl)pyridin-3-yl)-3-methyl-1-(2-(tetrahydro-2H-pyran-4-yl)ethyl)-3,4-dihydropyrazino[2,3-b]pyrazin-2(1H)-one]	500 to 1000 nM
CO[C@@H]1CC[C@H](CN2CC(=O)Nc3ncc(-c4ccc(C(C)(C)O)nc4)nc32)C1 [Example 58, 6-(6-(2-hydroxypropan-2-yl)pyridin-3-yl)-4-(((1S,3R)-3-methoxycyclopentyl)methyl)-3,4-dihydropyrazino[2,3-b]pyrazin-2(1H)-one]	0.005 to 250 nM
CO[C@@H]1CC[C@H](N2C(=O)CNc3ncc(-c4ccc(C(C)(C)O)nc4)nc32)C1 [Example 209, 7-(6-(2-hydroxypropan-2-yl)pyridin-3-yl)-1-((1S,3R)-3-methoxycyclopentyl)-3,4-dihydropyrazino[2,3-b]pyrazin-2(1H)-one]	0.005 to 250 nM
Cc1cc(C(C)(C)O)ncc1-c1cnc2c(n1)N(CC1CCOCC1)CC(=O)N2 [Example 78, 6-(6-(2-hydroxypropan-2-yl)-4-methylpyridin-3-yl)-4-((tetrahydro-2H-pyran-4-yl)methyl)-3,4-dihydropyrazino[2,3-b]pyrazin-2(1H)-one]	0.005 to 250 nM
O=C1CN(CC2CCOCC2)c2nc(-c3ccc(-c4nnc[nH]4)cc3)cnc2N1 [Example 142, 6-(4-(4H-1,2,4-triazol-3-yl)phenyl)-4-((tetrahydro-2H-pyran-4-yl)methyl)-3,4-dihydropyrazino[2,3-b]pyrazin-2(1H)-one]	0.005 to 250 nM
NC(=O)c1cccc(-c2cnc3c(n2)N(CCC2CCOCC2)CC(=O)N3)c1 [Example 33, 3-(6-oxo-8-(2-(tetrahydro-2H-pyran-4-yl)ethyl)-5,6,7,8-tetrahydropyrazino[2,3-b]pyrazin-2-yl)benzamide]	500 to 1000 nM
CC(C)(O)c1ccc(-c2cnc3c(n2)N([C@@H]2CCOC2)CC(=O)N3)cn1 [Example 129, (R)-6-(6-(2-hydroxypropan-2-yl)pyridin-3-yl)-4-(tetrahydrofuran-3-yl)-3,4-dihydropyrazino[2,3-b]pyrazin-2(1H)-one]	500 to 1000 nM
O=C1CNc2ncc(-c3ccc(-c4nc[nH]n4)nc3)nc2N1[C@H]1CC[C@@H](O)CC1 [Example 160, 7-(6-(1H-1,2,4-triazol-3-yl)pyridin-3-yl)-1-(cis-4-hydroxycyclohexyl)-3,4-dihydropyrazino[2,3-b]pyrazin-2(1H)-one]	0.005 to 250 nM
CO[C@@H]1CC[C@H](N2C(=O)CNc3ncc(-c4ccc(-c5nnc[nH]5)nc4C)nc32)C1 [Example 226, 1-((1S,3R)-3-methoxycyclopentyl)-7-(2-methyl-6-(4H-1,2,4-triazol-3-yl)pyridin-3-yl)-3,4-dihydropyrazino[2,3-b]pyrazin-2(1H)-one]	0.005 to 250 nM
CO[C@H]1CC[C@@H](N2CC(=O)Nc3ncc(-c4ccc(-c5nnc[nH]5)nc4C)nc32)C1 [Example 38, 4-((1R,3S)-3-methoxycyclopentyl)-6-(2-methyl-6-(4H-1,2,4-triazol-3-yl)pyridin-3-yl)-3,4-dihydropyrazino[2,3-b]pyrazin-2(1H)-one]	0.005 to 250 nM
COCCCN1C(=O)CNc2ncc(-c3ccc(C(C)(C)O)nc3)nc21 [Example 259, 7-(6-(2-hydroxypropan-2-yl)pyridin-3-yl)-1-(3-methoxypropyl)-3,4-dihydropyrazino[2,3-b]pyrazin-2(1H)-one]	0.005 to 250 nM
CO[C@H]1CC[C@@H](CN2C(=O)CNc3ncc(-c4cnc(C(N)=O)cc4C)nc32)CC1 [Example 200, 5-(8-((cis-4-methoxycyclohexyl)methyl)-7-oxo-5,6,7,8-tetrahydropyrazino[2,3-b]pyrazin-2-yl)-4-methylpicolinamide]	1000 to 10000 nM
CO[C@H]1CC[C@@H](N2CC(=O)Nc3ncc(-c4ccc(C(C)(C)O)nc4)nc32)C1 [Example 51, 6-(6-(2-hydroxypropan-2-yl)pyridin-3-yl)-4-((1R,3S)-3-methoxycyclopentyl)-3,4-dihydropyrazino[2,3-b]pyrazin-2(1H)-one]	0.005 to 250 nM
CC(C)(O)c1ccc(-c2cnc3c(n2)N(Cc2cccc(C#N)c2)C(=O)CN3)cn1 [Example 207, 3-((7-(6-(2-hydroxypropan-2-yl)pyridin-3-yl)-2-oxo-3,4-dihydropyrazino[2,3-b]pyrazin-1(2H)-yl)methyl)benzonitrile]	0.005 to 250 nM
Cc1c(-c2cnc3c(n2)N(CCC2CCOCC2)CC(=O)N3)ccc(-c2nnc[nH]2)c1F [Example 48, 6-(3-fluoro-2-methyl-4-(4H-1,2,4-triazol-3-yl)phenyl)-4-(2-(tetrahydro-2H-pyran-4-yl)ethyl)-3,4-dihydropyrazino[2,3-b]pyrazin-2(1H)-one]	0.005 to 250 nM
CO[C@H]1CC[C@H](CN2C(=O)CNc3ncc(-c4ccc(-c5nc[nH]n5)nc4)nc32)CC1 [Example 158, 7-(6-(1H-1,2,4-triazol-3-yl)pyridin-3-yl)-1-((trans-4-methoxycyclohexyl)methyl)-3,4-dihydropyrazino[2,3-b]pyrazin-2(1H)-one]	0.005 to 250 nM
C[C@@H](O)c1ccc(-c2cnc3c(n2)N(CCC2CCOCC2)C(=O)CN3)cn1 [Example 254, (R)-7-(6-(1-hydroxyethyl)pyridin-3-yl)-1-(2-(tetrahydro-2H-pyran-4-yl)ethyl)-3,4-dihydropyrazino[2,3-b]pyrazin-2(1H)-one]	0.005 to 250 nM
COCCN1CCN2c3nc(-c4ccc(-c5nnc[nH]5)cc4C)cnc3NC(=O)C2C1 (stereo not drawn) [Example 98, 9-(4-(4H-1,2,4-triazol-3-yl)-2-methylphenyl)-3-(2-methoxyethyl)-6,11,4a-trihydropiperazino[1,2-e]pyrazino[2,3-b]pyrazin-5-one]	250 to 500 nM
Cc1cc(-c2nnc[nH]2)ccc1-c1cnc2c(n1)NC(=O)CN2 [Example 239, 7-(2-methyl-4-(4H-1,2,4-triazol-3-yl)phenyl)-3,4-dihydropyrazino[2,3-b]pyrazin-2(1H)-one]	0.005 to 250 nM
O=C1CN(C2CCOCC2)c2nc(-c3ccc(-c4nc[nH]n4)nc3)cnc2N1 [Example 21, 6-(6-(1H-1,2,4-triazol-3-yl)pyridin-3-yl)-4-(tetrahydro-2H-pyran-4-yl)-3,4-dihydropyrazino[2,3-b]pyrazin-2(1H)-one]	0.005 to 250 nM
O=C1CN(CCC2CCOCC2)c2nc(-c3ccc4cn[nH]c4c3)cnc2N1 [Example 37, 6-(1H-indazol-6-yl)-4-(2-(tetrahydro-2H-pyran-4-yl)ethyl)-3,4-dihydropyrazino[2,3-b]pyrazin-2(1H)-one]	1000 to 10000 nM
CCN1C(=O)CNc2ncc(-c3ccc4[nH]ccc4n3)nc21 [Example 154, 1-ethyl-7-(1H-pyrrolo[3,2-b]pyridin-5-yl)-3,4-dihydropyrazino[2,3-b]pyrazin-2(1H)-one]	1000 to 10000 nM
